Here are results for one substance from US20160354320A1, “DRUG LOADED POLYMERIC NANOPARTICLES AND METHODS OF MAKING AND USING SAME” (BIND Therapeutics, Inc., priority 2011, published 2016).

A short description of this data set: Water solubility of cabazitaxel. The format is physicochemical. The source says: Drug solubilizer (Tween 80) may be added after the fine emulsion has been quenched. Tween 80 is able to effectively solubilize CTXL crystals and allow for the isolation of nanoparticles from unencapsulated CTXL by preventing the formation of CTXL crystals, and/or by effectively solubilizing any CTXL crystals that form when the fine emulsion is quenched. A standard set of nanoemulsion conditions are as follows: […]

On to cabazitaxel [CTXL], for which the water solubility entry was “very low water solubility”.
